According to PMC9973260, “Emergence of an Auxin Sensing Domain in Plant-Associated Bacteria” (mBio, 2023):

Assays:
AdmX-LBD [1] = molecular target: T1, AdmX-LBD (Serratia plymuthica, UniProt P0DV33, C100S); test: isothermal titration calorimetry; format: binding; details: read-out: dissociation constant
T1 construct: fast monomer-dimer equilibrium shifted toward dimer, dimer in crystal
T1 sequence (P0DV33 69-295 C100S): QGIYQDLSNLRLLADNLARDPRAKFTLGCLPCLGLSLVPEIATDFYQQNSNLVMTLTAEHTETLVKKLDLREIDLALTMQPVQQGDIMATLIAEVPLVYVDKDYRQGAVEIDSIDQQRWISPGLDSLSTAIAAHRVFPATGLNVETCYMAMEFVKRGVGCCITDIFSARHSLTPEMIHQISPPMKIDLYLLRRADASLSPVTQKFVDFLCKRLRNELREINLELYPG

AdmX-LBD [2] = molecular target: T2, AdmX-LBD (Serratia plymuthica, UniProt P0DV33, E213Q); test: isothermal titration calorimetry; format: binding; details: read-out: dissociation constant
T2 construct: fast monomer-dimer equilibrium shifted toward dimer, dimer in crystal
T2 sequence (P0DV33 69-295 E213Q): T1 sequence (P0DV33 69-295 C100S)

SMILES	Kd (AdmX-LBD [1]) [µM]	Kd (AdmX-LBD [2]) [µM]
O=C(O)C(=O)Cc1c[nH]c2ccccc12 [indole-3-pyruvic acid]	31.5 ± 1.6	6 ± 0.7
O=C(O)Cc1c[nH]c2ccccc12 [indole-3-acetic acid]	51 ± 3.4	23.9 ± 2.4
